Measured values published in patent US10227323B2, “Glucosylceramide synthase inhibitors for the treatment of diseases” (BIOMARIN PHARMACEUTICAL INC., priority 2013, dated 2019).

These compounds were tested against T1, GCS (Canis lupus familiaris, UniProt A0A8I3MXG6) (assay: Assay 1: GCS Enzymatic Assay (MDCK cell lysate, C6-NBD-Ceramide, LC/MS)). Conditions: Table 1; MDCK cell lysate; read-out: IC50 (nM) generated from Assay 1.
T1 sequence (A0A8I3MXG6 1-394): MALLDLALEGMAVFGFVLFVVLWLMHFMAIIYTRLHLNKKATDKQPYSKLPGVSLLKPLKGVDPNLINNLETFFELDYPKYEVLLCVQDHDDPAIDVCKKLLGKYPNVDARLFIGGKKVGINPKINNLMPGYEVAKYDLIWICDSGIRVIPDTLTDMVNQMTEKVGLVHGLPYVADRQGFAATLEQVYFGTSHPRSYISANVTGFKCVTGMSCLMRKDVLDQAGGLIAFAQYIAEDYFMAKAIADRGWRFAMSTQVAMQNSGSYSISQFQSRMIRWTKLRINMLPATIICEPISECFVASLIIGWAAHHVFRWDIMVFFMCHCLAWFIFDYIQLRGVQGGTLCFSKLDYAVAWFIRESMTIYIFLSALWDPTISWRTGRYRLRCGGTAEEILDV
Format: biochemical, canine
Procedure, shortened: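 LC/MS/MS measurement of glucosylceramide and NBD-ceramide after a 1 h, 37 °C reaction with 100 μM UDP-glucose and 10 μM C6-NBD-ceramide gave IC50s or percent inhibition.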

Compound	IC50
CC1CN(C[C@@H](NC(=O)C(F)(F)c2cc3cc(Cl)ccc3o2)[C@H](O)c2ccc3c(c2)OCCO3)C1 [Compound 66, 2-(5-chlorobenzofuran-2-yl)-N-((1R,2R)-1-(2,3-dihydrobenzo[b][1,4]dioxin-6-yl)-1-hydroxy-3-(3-methylazetidin-1-yl)propan-2-yl)-2,2-difluoroacetamide]	< 50 nM
O=C(N[C@H](CN1CCCC1)[C@@H](O)c1ccc(OC2CC2)c(Cl)c1)C(F)(F)c1cc2cc(C(F)(F)F)ccc2o1 [Compound 69A, N-((1S,2R)-1-(3-chloro-4-cyclopropoxyphenyl)-1-hydroxy-3-(pyrrolidin-1-yl)propan-2-yl)-2,2-difluoro-2-(5-(trifluoromethyl)benzofuran-2-yl)acetamide]	50 to 5000 nM
O=C(N[C@H](CN1CCCC1)[C@H](O)c1ccc2c(c1)OCCO2)C(=O)C1Cc2ccccc2C1 [Compound 70, 2-(2,3-dihydro-1H-inden-2-yl)-N-((1R,2R)-1-(2,3-dihydrobenzo[b][1,4]dioxin-6-yl)-1-hydroxy-3-(pyrrolidin-1-yl)propan-2-yl)-2-oxoacetamide]	< 50 nM
O=C(N[C@H](CN1CCCC1)[C@H](O)c1ccc2c(c1)OCCO2)C(=O)c1cc2cc(Cl)ccc2o1 [Compound 71, 2-(5-chlorobenzofuran-2-yl)-N-((1R,2R)-1-(2,3-dihydrobenzo[b][1,4]dioxin-6-yl)-1-hydroxy-3-(pyrrolidin-1-yl)propan-2-yl)-2-oxoacetamide]	< 50 nM
O=C(N[C@H](CN1CCCC1)[C@H](O)c1ccc2c(c1)OCCO2)/C(=N/O)c1cc2cc(Cl)ccc2o1 [Compound 72, (E)-2-(5-chlorobenzofuran-2-yl)-N-((1R,2R)-1-(2,3-dihydrobenzo[b][1,4]dioxin-6-yl)-1-hydroxy-3-(pyrrolidin-1-yl)propan-2-yl)-2-(hydroxyimino)acetamide]	< 50 nM

The next lines start with the values.

IC50	Compound
< 50 nM	O=C(N[C@H](CN1CCCC1)[C@H](O)c1ccc(OC2CC2)c(Cl)c1)C(F)(F)C1Cc2ccc(Cl)cc2C1 (stereo partly drawn) [Compound 67, 2-(5-chloro-2,3-dihydro-1H-inden-2-yl)-N-((1R,2R)-1-(3-chloro-4-cyclopropoxyphenyl)-1-hydroxy-3-(pyrrolidin-1-yl)propan-2-yl)-2,2-difluoroacetamide]
< 50 nM	O=C(N[C@H](CN1CCCC1)[C@H](O)c1ccc(OC2CC2)c(Cl)c1)C(F)(F)c1cc2cc(C(F)(F)F)ccc2o1 [Compound 69, N-((1R,2R)-1-(3-chloro-4-cyclopropoxyphenyl)-1-hydroxy-3-(pyrrolidin-1-yl)propan-2-yl)-2,2-difluoro-2-(5-(trifluoromethyl)benzofuran-2-yl)acetamide]
< 50 nM	O=C(N[C@H](CN1CCCC1)[C@H](O)c1ccc2c(c1)OCCO2)C(=O)C1Cc2ccc(-c3ccccn3)cc2C1 (stereo partly drawn) [Compound 73, N-((1R,2R)-1-(2,3-dihydrobenzo[b][1,4]dioxin-6-yl)-1-hydroxy-3-(pyrrolidin-1-yl)propan-2-yl)-2-oxo-2-(5-(pyridin-2-yl)-2,3-dihydro-1H-inden-2-yl)acetamide]
< 50 nM	O=C(N[C@H](CN1CCCC1)[C@H](O)c1ccc2c(c1)OCCO2)C(=O)C1Cc2ccc(Cl)cc2C1 (stereo partly drawn) [Compound 74, 2-(5-chloro-2,3-dihydro-1H-inden-2-yl)-N-((1R,2R)-1-(2,3-dihydrobenzo[b][1,4]dioxin-6-yl)-1-hydroxy-3-(pyrrolidin-1-yl)propan-2-yl)-2-oxoacetamide]

Same assay, conditions: Table 1; values marked *; MDCK cell lysate

Compound	% inhibition generated from Assay 1
O=C(N[C@H](CN1CCCC1)[C@H](O)c1cc2cc(Cl)ccc2o1)C(F)(F)c1cc2cc(Cl)ccc2o1 [Compound 68, 2-(5-chlorobenzofuran-2-yl)-N-((1S,2R)-1-(5-chlorobenzofuran-2-yl)-1-hydroxy-3-(pyrrolidin-1-yl)propan-2-yl)-2,2-difluoroacetamide]	B* (the compound had a % inhibition of greater than or equal to about 3% but less than about 50%)
O=C(N[C@H](CN1CCCC1)[C@@H](O)c1cc2cc(Cl)ccc2o1)C(F)(F)c1cc2cc(Cl)ccc2o1 [Compound 68G, 2-(5-chlorobenzofuran-2-yl)-N-((1R,2R)-1-(5-chlorobenzofuran-2-yl)-1-hydroxy-3-(pyrrolidin-1-yl)propan-2-yl)-2,2-difluoroacetamide]	B* (the compound had a % inhibition of greater than or equal to about 3% but less than about 50%)

Same assay, conditions: Table 2; data marked by *

Compound	% inhibition generated from Assay 1
O=C(N[C@H](CN1CCCC1)[C@H](O)c1ccc2c(c1)OCCO2)C(=O)c1[nH]cc2c1CCCC2 [Compound 77, N-((1R,2R)-1-(2,3-dihydrobenzo[b][1,4]dioxin-6-yl)-1-hydroxy-3-(pyrrolidin-1-yl)propan-2-yl)-2-oxo-2-(4,5,6,7-tetrahydro-2H-isoindol-1-yl)acetamide]	B* (the compound had a % inhibition of greater than or equal to about 3% but less than about 50%)
O=C(N[C@H](CN1CCCC1)[C@H](O)c1ccc(OCC(F)(F)F)nc1)C(F)(F)CCc1ccc2cc(F)ccc2c1 [Compound 88, 2,2-difluoro-4-(6-fluoronaphthalen-2-yl)-N-((1R,2R)-1-hydroxy-3-(pyrrolidin-1-yl)-1-(6-(2,2,2-trifluoroethoxy)pyridin-3-yl)propan-2-yl)butanamide]	A* (the compound had a % inhibition of a percent inhibition of greater than or equal to about 50%)
O=C(N[C@H](CN1CCCC1)[C@H](O)c1ccc(OCC(F)(F)F)nc1)C(F)(F)C1Cc2ccc(Cl)cc2C1 (stereo partly drawn) [Compound 91, 2-(5-chloro-2,3-dihydro-1H-inden-2-yl)-2,2-difluoro-N-((1R,2R)-1-hydroxy-3-(pyrrolidin-1-yl)-1-(6-(2,2,2-trifluoroethoxy)pyridin-3-yl)propan-2-yl)acetamide]	B* (the compound had a % inhibition of greater than or equal to about 3% but less than about 50%)

Same assay, conditions: Table 2; data without asterisk; read-out: IC50 (nM) generated from Assay 1

Compound	IC50
O=C(N[C@H](CN1CCC1)[C@H](O)c1ccc2c(c1)OCCO2)C(=O)c1cc2cc(Cl)ccc2o1 [Compound 78, N-((1R,2R)-3-(azetidin-1-yl)-1-(2,3-dihydrobenzo[b][1,4]dioxin-6-yl)-1-hydroxypropan-2-yl)-2-(5-chlorobenzofuran-2-yl)-2-oxoacetamide]	< 50 nM
O=C(N[C@H](CN1CCCC1)[C@H](O)c1ccc(OC2CC2)c(Cl)c1)C(=O)c1cc2cc(Cl)ccc2o1 [Compound 79, N-((1R,2R)-1-(3-chloro-4-cyclopropoxyphenyl)-1-hydroxy-3-(pyrrolidin-1-yl)propan-2-yl)-2-(5-chlorobenzofuran-2-yl)-2-oxoacetamide]	< 50 nM
O=C(N[C@H](CN1CCC1)[C@H](O)c1cc(F)c2c(c1)OCCO2)C(F)(F)c1cc2cc(Cl)ccc2o1 [Compound 83, N-((1R,2R)-3-(azetidin-1-yl)-1-(8-fluoro-2,3-dihydrobenzo[b][1,4]dioxin-6-yl)-1-hydroxypropan-2-yl)-2-(5-chlorobenzofuran-2-yl)-2,2-difluoroacetamide]	< 50 nM
O=C(N[C@H](CN1CCCC1)[C@H](O)c1ccc2c(c1)OCCO2)C(F)(F)CCc1ccc2cc(F)ccc2c1 [Compound 84, N-((1R,2R)-1-(2,3-dihydrobenzo[b][1,4]dioxin-6-yl)-1-hydroxy-3-(pyrrolidin-1-yl)propan-2-yl)-2,2-difluoro-4-(6-fluoronaphthalen-2-yl)butanamide]	< 50 nM

The remaining lines, values ahead:

IC50	Compound
< 50 nM	O=C(N[C@H](CN1CCCC1)[C@H](O)c1ccc(OC2CC2)c(Cl)c1)C(F)(F)CCc1ccc2cc(F)ccc2c1 [Compound 82, N-((1R,2R)-1-(3-chloro-4-cyclopropoxyphenyl)-1-hydroxy-3-(pyrrolidin-1-yl)propan-2-yl)-2,2-difluoro-4-(6-fluoronaphthalen-2-yl)butanamide]
< 50 nM	O=C(N[C@H](CN1CCCC1)[C@H](O)c1ccc(OCC(F)(F)F)nc1)C(F)(F)c1cc2cc(Cl)ccc2o1 [Compound 85, 2-(5-chlorobenzofuran-2-yl)-2,2-difluoro-N-((1R,2R)-1-hydroxy-3-(pyrrolidin-1-yl)-1-(6-(2,2,2-trifluoroethoxy)pyridin-3-yl)propan-2-yl)acetamide]
< 50 nM	O=C(N[C@H](CN1CCC1)[C@H](O)c1cc(F)c2c(c1)OCCO2)C(F)(F)CCc1ccc2cc(F)ccc2c1 [Compound 86, N-((1R,2R)-3-(azetidin-1-yl)-1-(8-fluoro-2,3-dihydrobenzo[b][1,4]dioxin-6-yl)-1-hydroxypropan-2-yl)-2,2-difluoro-4-(6-fluoronaphthalen-2-yl)butanamide]
< 50 nM	O=C(N[C@H](CN1CCCC1)[C@H](O)c1cc(F)c2c(c1)OCCO2)C(F)(F)CCc1ccc2cc(F)ccc2c1 [Compound 87, 2,2-difluoro-N-((1R,2R)-1-(8-fluoro-2,3-dihydrobenzo[b][1,4]dioxin-6-yl)-1-hydroxy-3-(pyrrolidin-1-yl)propan-2-yl)-4-(6-fluoronaphthalen-2-yl)butanamide]
< 50 nM	O=C(N[C@H](CN1CCC1)[C@H](O)c1cc(F)c2c(c1)OCCO2)C(=O)c1cc2cc(Cl)ccc2o1 [Compound 89, N-((1R,2R)-3-(azetidin-1-yl)-1-(8-fluoro-2,3-dihydrobenzo[b][1,4]dioxin-6-yl)-1-hydroxypropan-2-yl)-2-(5-chlorobenzofuran-2-yl)-2-oxoacetamide]
< 50 nM	O=C(CCc1ccc2cc(F)ccc2c1)C(=O)N[C@H](CN1CCCC1)[C@H](O)c1ccc2c(c1)OCCO2 [Compound 90, N-((1R,2R)-1-(2,3-dihydrobenzo[b][1,4]dioxin-6-yl)-1-hydroxy-3-(pyrrolidin-1-yl)propan-2-yl)-4-(6-fluoronaphthalen-2-yl)-2-oxobutanamide]
